# Publication PMC12579247, “Tanshinone IIA inhibits heat-induced growth of p53-mutant Huh-7 hepatocellular carcinoma by modulating osmotic homeostasis and glycolysis through targeting ALDH7A1” (Cell Death Discovery, 2025)
# Molecular target: T1, ALDH7A1 (Homo sapiens, UniProt P49419)
# T1 construct: endogenous protein in heat-pretreated (44 °C) Huh-7 cells; CETSA on total protein extract, detected by Western blot
# T1 sequence (P49419 27-539): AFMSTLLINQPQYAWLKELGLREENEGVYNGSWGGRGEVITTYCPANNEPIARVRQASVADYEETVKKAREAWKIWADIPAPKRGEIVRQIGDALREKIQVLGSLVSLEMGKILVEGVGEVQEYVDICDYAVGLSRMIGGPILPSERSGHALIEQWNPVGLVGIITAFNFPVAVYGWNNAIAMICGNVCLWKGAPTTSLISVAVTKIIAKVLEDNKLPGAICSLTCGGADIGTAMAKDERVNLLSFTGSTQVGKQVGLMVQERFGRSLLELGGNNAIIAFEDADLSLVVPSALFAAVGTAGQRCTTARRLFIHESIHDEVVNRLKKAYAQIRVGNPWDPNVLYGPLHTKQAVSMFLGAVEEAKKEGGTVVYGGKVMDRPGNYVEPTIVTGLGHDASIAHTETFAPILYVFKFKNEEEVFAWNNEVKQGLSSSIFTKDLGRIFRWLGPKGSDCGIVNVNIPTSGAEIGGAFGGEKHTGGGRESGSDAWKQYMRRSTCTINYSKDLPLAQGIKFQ
# Assay: CETSA, Western blot
# Format: cell-based
# Settings: 0, 4, 8 µM for 24 h in cells, extract then heated at 63 °C for 5 min; heat-pretreated Huh-7 cells
smiles,measurement,value
Cc1coc2c1C(=O)C(=O)c1c-2ccc2c1CCCC2(C)C [Tan IIA],"CETSA, Western blot",CETSA results showed that the binding of Tan IIA to ALDH7A1 was concentration-dependent
